These results are taken from article PMC12606464, “Investigating NFE2L1 activators for targeted protein aggregate clearance: a follow-up study” (RSC Medicinal Chemistry, 2025).

In one assay the test system is reactive oxygen species. Kind of assay: DCFH-DA oxidative stress detection. The class given is cell-based. The following applies: DCFH-DA assay, Figure S8. The protocol:
2.10 Oxidative stress detection
Cells were cultured in 96-well plates and washed with prewarmed HBSS buffer. A solution of 2',7'-dichlorofluorescein-diacetate (DCFH-DA) (100 μM) was added to the cells, followed by 30 minutes of incubation. […]
dissolved in HBSS buffer for an additional 2 hours. Control cells received vehicle (DMSO), or […]

Assay [1] concerns chymotrypsin-like activity of the 26S proteasome. In words: Proteasome activity assay in MCF7 cell lysates. The class given is cell-based. The following applies: for Geometric mean, Treatment (Control = 1): MCF7, Figure S6. On the procedure:
Building on previous findings, we investigated how selected RUN compounds influence proteasomal function itself. Specifically, we examined the chymotrypsin-like activity of the 26S proteasome following a 16 hour treatment with 7.5 μM RUN compounds in the HEK293 cell line. […] In addition, two other cell lines, MCF7 and SH-SY5Y, were measured (see the SI, Fig. S6).
Figure S6: RUN compounds enhance chymotrypsin-like activity of the 26S proteasome in […]
Cells were treated with 5 µM RUN compounds for 16 hours, with DMSO (0.5%) as the vehicle control. Proteasome chymotrypsin-like activity was measured in cell lysates at 37 °C. Four independent experiments were conducted. Statistical analysis was performed using ratio paired t-tests corrected for multiple comparisons with the Holm-Šídák's method (α = 0.05). Detailed results of the analysis are shown in Supplementary Table S16. […]
2.7 Proteasome activity assay
The corresponding cell lines (HEK293, MCF7, or SH-SY5Y) were seeded into 6-well plates and allowed to adhere overnight under standard culture conditions. On the following day, HEK293 cells were treated with 7.5 µM RUN compounds, whereas MCF7 and SH-SY5Y cells were treated with 5 µM RUN compounds, for 16 hours each. After treatment, cells were harvested, resuspended in lysis buffer (50 mM HEPES, pH 7.5; 5 mM EDTA; 150 mM NaCl; 2 mM ATP; 1% Triton), and centrifuged at 15,000 rpm for 15 minutes at 4 °C. The resulting lysates (25 µg total protein) were incubated with 200 µM of the fluorogenic substrate Suc-Leu-Leu-Val-Tyr-AMC (Bachem, I1395) in assay buffer (50 mM Tris, pH 8.0; 10 mM MgCl₂; 1 mM ATP; 1 mM DTT) at 37 °C. Free AMC release was detected by measuring fluorescence at 360/460 nm. Results of RUN compounds were compared to the DMSO control using a ratio paired t-test corrected for multiple comparisons with the Holm-Šídák's method (α = 0.05) in GraphPad Prism (v 10.6.1).
2.8 XBP1-endoplasmic reticulum (ER) stress reporter assay […]
Two sets of comparisons: 1) […]
treatment with MG132 inhibitor or RUN compounds with DMSO control, 2) RUN compounds vs MG132, were done by two-way repeated-measures ANOVA with Geisser–Greenhouse correction, followed by Dunnett’s multiple comparisons test with individual variances in […]
HCT116 parental cells (WT) and two independent DDI2 knockout clones (KO 04 and KO 11), in which NFE2L1 activation is impaired, were transiently transfected with plasmids encoding either a non-aggregating EGFP-HttQ23 or an aggregation-prone EGFP-HttQ74 construct using Lipofectamine 2000 (Thermo Fisher Scientific) according to the manufacturer’s

For assay [2], the system named is NFE2L1-dependent gene expression. Kind of assay: Quantitative RT-PCR of NFE2L1-dependent genes in HEK293 cells. The class given is cell-based, human. To be noted: 7.5 μM, 16 h; for DNAJA1 mRNA, geometric mean (treatment) / HSPA1A mRNA, geometric mean (treatment) / NQO1 mRNA, geometric mean (treatment) / PSMC4 mRNA, geometric mean (treatment) / PSMD12 mRNA, geometric mean (treatment) / SQSTM1 mRNA, geometric mean (treatment): HEK293, normalized to RPLP0, DMSO control = 1; for DNAJA1 mRNA, geometric mean of ratios / HSPA1A mRNA, geometric mean of ratios / NQO1 mRNA, geometric mean of ratios / PSMC4 mRNA, geometric mean of ratios / PSMD12 mRNA, geometric mean of ratios / SQSTM1 mRNA, geometric mean of ratios: treatment/control, ratio paired t test, HEK293. The protocol: NFE2L1 enhances the transcription of genes encoding proteasome subunits and molecular chaperones such as heat shock proteins (HSPs). To evaluate whether this effect is elicited by RUN compounds, we performed quantitative real-time PCR (RT-qPCR) analysis in HEK293 cells treated with selected RUN compounds (Fig. 2A).[28,53–55]
Fig. 2 (A) qPCRs of HEK293 cells treated with RUN compounds (7.5 μM) for 16 hours. The extracted RNA was reverse transcribed into cDNA and utilized for RT-qPCR (primers are listed in the SI, Table S1); the mRNA levels of RPLP0 were used for normalization. The experiment was performed in three biological replicates (n = 3). (B) Immunoblot analysis of proteins NFE2L1/TCF11/NRF1, SQSTM1/p62, LC3, NQO1 and HSPA1A/HSP70-1 in HEK293 cells after 16 h treatment with 7.5 μM RUN compounds. The protein levels were quantified by measuring the integrated fluorescence of the corresponding protein bands and normalized to the β-actin load. The full-length (F) and cleaved (C) forms of NFE2L1 were analyzed together. The experiment was performed in four biological replicates (n = 4) except for NFE2L1 (n = 3). (A and B) Results of RUN compounds were compared to the DMSO control using ratio paired t-tests corrected for multiple comparisons with Holm–Šídák's method (α = 0.05). *p < 0.05, **p < 0.01. Detailed results of the analysis are shown in SI Tables S5 and S6. […]
HEK-293 cells were seeded into 12 -well plates and allowed to adhere overnight under standard culture conditions. On the following day, cells were treated with the indicated test compounds or DMSO vehicle control for 16 h. After treatment, cells were lysed directly in the wells, and the resulting lysates were collected for downstream RNA extraction. RNA was extracted using the RNeasy® Plus Micro Kit according to the manufacturer’s instructions. Complementary DNA (cDNA) was synthesized from RNA using either t he TATAA GrandScript cDNA Supermix (TATAA Biocenter) or the QuantiTect® Reverse Transcription Kit (Qiagen), following the respective protocols. Quantitative RT -PCR was performed on a LightCycler® 480 instrument (Roche Life Science) using the TATAA SYBR® Gr andMaster® Mix (TATAA […]
Biocenter). Gene expression levels were normalized to RPLP0, and relative expression was calculated using the ΔΔCt method. Data were expressed as fold change relative to the corresponding DMSO control. Statistical analysis of changes in gene expression was performed w ith a ratio paired t-test corrected for multiple comparisons using Holm-Šídák's method (α = 0.05) in GraphPad Prism (v 10.6.1).
Table S1. Sequences of primer pairs used in the qRT -PCR analysis of gene expression.

For the molecule `COc1ccc(/C=C2\CC(N)C/C(=C\c3ccc(OC)c(OC)c3)C2=O)cc1OC` (stereo not drawn) [RUN-81], in the assay on reactive oxygen species (5 μM), the “Geometric mean, Treatment (Control = 1)” value came out at 0.96. In addition, the “Geometric mean, Treatment (Control = 1)” value in the assay with reactive oxygen species (25 μM) turned out to be 0.99. Besides, the “Geometric mean, Treatment (Control = 1)” value in assay [1] stood at 1.11. In assay [2], the “DNAJA1 mRNA, geometric mean (treatment)” value is on record as 3.68; the “HSPA1A mRNA, geometric mean (treatment)” value was found to be 8.57; the “NQO1 mRNA, geometric mean (treatment)” value stood at 2.23; the “PSMC4 mRNA, geometric mean (treatment)” value came to 4.76. Besides, in assay [2], the “PSMD12 mRNA, geometric mean (treatment)” value is given as 3.37; the “SQSTM1 mRNA, geometric mean (treatment)” value amounted to 4.15; the “DNAJA1 mRNA, geometric mean of ratios” value is listed as 3.68; the “HSPA1A mRNA, geometric mean of ratios” value is 8.57. Besides, in assay [2], the “NQO1 mRNA, geometric mean of ratios” value came to 2.23; the “PSMC4 mRNA, geometric mean of ratios” value is 4.76; the “PSMD12 mRNA, geometric mean of ratios” value is 3.37; the “SQSTM1 mRNA, geometric mean of ratios” value was found to be 4.15.

Consider `COc1ccc(/C=C2\CC(NC(=O)C3CCCC3)C/C(=C\c3ccc(OC)c(OC)c3)C2=O)cc1OC` (stereo not drawn) [RUN-89], for which, in the assay on reactive oxygen species (5 μM), the “Geometric mean, Treatment (Control = 1)” value is given as 1.09. Further, the “Geometric mean, Treatment (Control = 1)” value in the assay with reactive oxygen species (25 μM) is given as 1.13. The “Proteasome chymotrypsin-like activity in MCF-7 cells” value in assay [1] (5 μM, 16 h) was “greatest increase”. The “Geometric mean, Treatment (Control = 1)” value in assay [1] is recorded as 1.38. Further, in assay [2], the “DNAJA1 mRNA, geometric mean (treatment)” value is recorded as 7.60; the “HSPA1A mRNA, geometric mean (treatment)” value was determined as 8.85; the “NQO1 mRNA, geometric mean (treatment)” value amounted to 2.73; the “PSMC4 mRNA, geometric mean (treatment)” value was determined as 2.21. Also, in assay [2], the “PSMD12 mRNA, geometric mean (treatment)” value is reported as 5.14; the “SQSTM1 mRNA, geometric mean (treatment)” value turned out to be 5.22; the “DNAJA1 mRNA, geometric mean of ratios” value worked out at 7.60; the “HSPA1A mRNA, geometric mean of ratios” value was determined as 8.85. Besides, in assay [2], the “NQO1 mRNA, geometric mean of ratios” value was 2.73; the “PSMC4 mRNA, geometric mean of ratios” value is listed as 2.21; the “PSMD12 mRNA, geometric mean of ratios” value worked out at 5.14; the “SQSTM1 mRNA, geometric mean of ratios” value was determined as 5.22.

On to `COc1ccc(/C=C2\CC(NC(=O)c3ccccn3)C/C(=C\c3ccc(OC)c(OC)c3)C2=O)cc1OC` (stereo not drawn) [RUN-94], for which the “Geometric mean, Treatment (Control = 1)” value in the assay with reactive oxygen species (5 μM) was determined as 0.97. In addition, in the assay on reactive oxygen species (25 μM), the “Geometric mean, Treatment (Control = 1)” value amounted to 1.00. Moreover, in assay [1], the “Geometric mean, Treatment (Control = 1)” value is 1.26. Also, in assay [2], the “DNAJA1 mRNA, geometric mean (treatment)” value stood at 6.57; the “NQO1 mRNA, geometric mean (treatment)” value amounted to 2.85; the “PSMC4 mRNA, geometric mean (treatment)” value is reported as 1.37; the “PSMD12 mRNA, geometric mean (treatment)” value is 4.22. Further, in assay [2], the “SQSTM1 mRNA, geometric mean (treatment)” value is on record as 6.10; the “DNAJA1 mRNA, geometric mean of ratios” value is recorded as 6.57; the “HSPA1A mRNA, geometric mean of ratios” value is recorded as 8.20; the “NQO1 mRNA, geometric mean of ratios” value amounted to 2.85. In assay [2], the “PSMC4 mRNA, geometric mean of ratios” value was determined as 1.37; the “PSMD12 mRNA, geometric mean of ratios” value was found to be 4.22; the “SQSTM1 mRNA, geometric mean of ratios” value is listed as 6.10.
